# Activity calls are given as the source filed them. No cut-off is given here; in the data, nearly all actives have IC50 up to about 10 µM.
# Target: yeast expressing human caspase-1/ASC, counter-screen read-out
# Assay: CASP1-PYCARD signal inhibition in yeast, concentration-response, counterassay for NLRP3 inhibitor project (AID 488800)
row,SMILES,IC50
1,N#Cc1ccc(NC(=O)Nc2ccc(Cl)cc2)cc1,2.98 µM
2,Cc1ccc(NC(=O)c2nc(S(=O)(=O)Cc3ccccc3)ncc2Cl)cc1,1.67 µM
3,CC(=O)Oc1c(I)cc(I)cc1C(=O)Nc1ccc(Cl)cc1,0.813 µM
4,Cc1onc(-c2ccccc2Cl)c1C(=O)N1C=CC(C(F)(F)F)=NCC1,6.51 µM
5,Cc1csc2nc(O)c(C(=O)NCCC3=CCCCC3)c(=O)n12,2.33 µM
6,O=C(Nc1scc(-c2ccccc2)c1C(=O)O)c1ccc(F)cc1,4.03 µM
7,O=C(NCCCc1ccccc1)c1c(O)nc2sccn2c1=O,2.42 µM
8,CC(=O)N(/N=C1\Sc2ccccc2C1=O)c1ccccc1C,4.55 µM
9,CCOC(=O)N1C(=O)C2(CCCCC2)N(c2ccccc2Cl)C1=S,10.6 µM
10,Cn1c(=O)c(C(=O)Nc2ncccn2)c(O)c2ccccc21,3.18 µM
11,O=c1c2cc(Br)ccc2nc(-c2ccc([N+](=O)[O-])cc2)n1O,2.39 µM
12,Cc1cccc(C(=O)O/N=C(\N)Cc2cccc3ccccc23)c1,1.72 µM
13,COc1cc(CNCCc2ccccc2)ccc1OCc1ccc(Cl)nc1,4.86 µM
14,O=c1c2cc(Cl)ccc2nc(-c2ccc([N+](=O)[O-])cc2)n1O,2.7 µM
15,O=C(Nc1cccc(Cl)c1)c1cc(N=Nc2ccc([N+](=O)[O-])cc2Cl)ccc1O,0.566 µM
16,c1ccc(Sc2cccc3ccccc23)c(CNC2=NCCN2)c1,7.62 µM
17,CN(CC(=O)N1CCc2ccccc2C1)c1ccccc1,2.22 µM
18,O=C(CCS(=O)(=O)c1ccccc1)N(CCCN1CCOCC1)c1nc2c(F)cccc2s1,1.05 µM
19,CCN(CC)c1ccc2nc3ccc(N)cc3[n+](-c3ccccc3)c2c1,1.08 µM
20,CCCOc1ccc(C(=O)NNC(=S)NC(=O)c2cccs2)cc1,2.93 µM
21,Cn1c(=O)c(C(=O)NNC(=O)c2ccccc2F)c(O)c2ccccc21,1.56 µM
22,COc1c(OC(C)=O)c(=O)n2c3ccccc3c3ccnc1c32,0.665 µM
23,CC(C)NC(=O)c1c(O)c2ccccc2[nH]c1=O,1.19 µM
24,COc1ccc(CNC(=O)c2c(C)oc3c2C(=O)c2ccccc2C3=O)cc1,3.11 µM
25,O=C(NNC(=S)NC(=O)c1ccc(Br)cc1)c1ccc([N+](=O)[O-])cc1,> 100 µM (inactive)
26,CC(N)C(=O)OC(C)(C)Cc1ccc(Cl)cc1 (stereo not drawn),4.3 µM
27,C[C@@H]1C[C@@H]2O[C@H]2/C=C\C=C\C(=O)Cc2c(Cl)c(O)cc(O)c2C(=O)O1,5.66 µM

row,SMILES,IC50
1,c1ccc(C2Nc3ccccc3C3OCCCC23)cc1 (stereo not drawn),0.881 µM
2,O=C(NCCC1=CCCCC1)c1c(O)nc2sccn2c1=O,2.24 µM
3,Oc1c(/C=N/c2ccccn2)sc2ccccc12,3.8 µM
4,CCC1Nc2ncnc(N3CCN(c4ccccn4)CC3)c2N(Cc2ccc(Br)cc2)C1=O (stereo not drawn),3.3 µM
5,O=C(Nc1cccc(Cl)c1)c1cnn2cccnc12,4.35 µM
6,O=C(Nc1ccc(Cl)cc1)Nc1ccc(Cl)c(Cl)c1,0.805 µM
7,CCCCCC(=O)N1CCN(CCN=CC2=C(O)CC(c3ccco3)CC2=O)CC1 (stereo not drawn),8.62 µM
8,CCC1Nc2ncnc(N3CCN(c4ccccn4)CC3)c2N(Cc2ccc(Cl)cc2)C1=O (stereo not drawn),3.32 µM
9,CCCCCCCCn1c2c(c(=N)c3ccccc31)CCC2,8.75 µM
10,CN(CCOc1ccccc1)c1ccc(S(=O)(=O)N2CCCCC2)cn1,5.1 µM
11,Nc1ccc(Oc2cc(N)cc(Oc3ccccc3)c2)cc1,4.58 µM
12,O=C(NC(=S)NNC(=O)c1ccccc1O)c1ccc(F)cc1,1.82 µM
13,CCN1/C(=C/C=C/c2oc3ccc(-c4ccccc4)cc3[n+]2CC)Oc2ccc(-c3ccccc3)cc21,8.93 µM
14,C=CCc1c(C)nc(C)nc1N/N=C/c1ccccc1O,9.37 µM
15,Brc1ccc(-n2cnc(-c3ccccc3)c2)cc1,10.1 µM
16,CCSc1nsc(NC(=O)Nc2cccc(F)c2)n1,1.22 µM
17,CCOC(=O)c1ccc2c(c1)nc(COc1ccc(OC)cc1)n2CC,9.83 µM
18,COc1ccc(NC(=O)C#Cc2ccccc2)cc1,1.44 µM
19,CCCC1CCC(c2ccc(OCC)cc2)=CC1=O (stereo not drawn),4.85 µM
20,O=c1c2ccc(Cl)cc2nc(-c2cccc(C(F)(F)F)c2)n1O,2.67 µM
21,CCN(CC)c1ccc2nc3ccccc3[n+](CC)c2c1,6.23 µM
22,O=c1cc(-c2ccccc2Cl)oc2ccc([N+](=O)[O-])c(O)c12,1.89 µM
23,O=C(Nc1cccc(Br)c1)c1cc2ccccc2o1,3.37 µM
24,CCCCCNC(=O)C(=O)C1C(=O)Nc2ccccc21 (stereo not drawn),1.78 µM
25,CCCCCCCCCn1c2c(c(=N)c3c1CCC3)CCC2,6.26 µM
26,COc1cccc(NC(=O)c2ccccc2)c1,4.54 µM

# From PubChem BioAssay AID488800 (Sanford-Burnham Center for Chemical Genomics, 2010)
